According to patent publication US9561228B2 (Celgene Avilomics Research, Inc., priority 2013, dated 2017):

How the values were obtained:
Type in all cases: cell-based
[1] = test system: HT-29 cells (colorectal adenocarcinoma); assay: Inhibition of cancer cell proliferation, HT-29 (CellTiterGlo, 72 hours); settings: Homo sapiens
Summary of the method: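 Proliferation over 72 h at 37° C was read by CellTiterGlo luminescence, translated to cell counts with a cell-density standard curve (390–50,000 cells). Compound added as 3-fold dilutions from a 5,000 nM two-fold stock to 3000 seeded HT-29 cells; GI50 from percent inhibition relative to untreated wells.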

[2] = test system: ERK1/2 phosphorylation of p90RSK in A375 cells; assay: Detection of total and phosphor-RSK by MSD ELISA (A375); settings: Homo sapiens, A-375, read-out: ERK1/ERK2 PRSK A375 EC50
Summary of the method: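 Electrochemiluminescent MSD ELISA: common RSK capture antibody, with pRSK Ser380 or total RSK detection antibodies plus SulfoTag secondaries. Samples were lysates of A375 cells exposed to compound for 2 h at 37° C after overnight culture in 0.1% FBS DMEM.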

[3] = test system: ERK1/2 phosphorylation of p90RSK in HT29 cells; assay: pRSK MSD Assay in HT29 cells; settings: Homo sapiens, HT-29, read-out: ERK1/ERK2 PRSK MSD HT29 EC50
Summary of the method: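 Phospho-RSK level, read by electrochemiluminescence on RSK-antibody-coated MSD plates with a phospho-RSK/Sulfo-tag detection pair, reports cellular ERK1/2 activity. HT29 cells, kept overnight in 0.1% FBS medium, were exposed to compound for 120 min at 37° C before lysis.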

SMILES | GI50 [1] [nM] | EC50 [2] [nM] | EC50 [3] [nM]
C=CC(=O)Nc1cc(OC)ccc1Nc1nc(Nc2cc(OC)nc(N3CCN(C(C)=O)CC3)c2)ncc1C(F)(F)F [Compound I-91, N-(2-((2-((2-(4-Acetylpiperazin-1-yl)-6-methoxypyridin-4-yl)amino)-5-(trifluoromethyl)pyrimidin-4-yl)amino)-5-methoxyphenyl)acrylamide] | < 100 | < 100 | 101 to 500
C=CC(=O)Nc1cc(C)ccc1Nc1nc(Nc2cc(OC)nc(N3CCOCC3)c2)ncc1C(F)(F)F [Compound I-94, N-(2-((2-((2-Methoxy-6-morpholinopyridin-4-yl)amino)-5-(trifluoromethyl)pyrimidin-4-yl)amino)-5-methylphenyl)acrylamide] | < 100 | 101 to 500 | < 100
C=CC(=O)Nc1ccccc1Nc1nc(Nc2cc(OC)nc(OC)c2)ncc1C(F)(F)F [Compound I-95, N-(2-((2-((2,6-Dimethoxypyridin-4-yl)amino)-5-(trifluoromethyl)pyrimidin-4-yl)amino)phenyl)acrylamide] | < 100 | < 100 | < 100
C=CC(=O)Nc1cc(C)ccc1Nc1nc(N[C@H]2CCCN(C(=O)CO)C2)ncc1Cl [Compound I-140, (S)—N-(2-((5-chloro-2-((1-(2-hydroxyacetyl)piperidin-3-yl)amino)pyrimidin-4-yl)amino)-5-methylphenyl)acrylamide] | < 100 | < 100 | < 100
C=CC(=O)Nc1cc(OC)ccc1Nc1nc(Nc2cc(OC)ncc2C)ncc1Cl [Compound I-242, N-(2-((5-chloro-2-((2-methoxy-5-methylpyridin-4-yl)amino)pyrimidin-4-yl)amino)-5-methoxyphenyl)acrylamide] | < 100 | < 100 | < 100
C=CC(=O)Nc1ccccc1Nc1nc(Nc2cc(OC)nc(N3CCCC3)c2)ncc1C(F)(F)F [Compound I-281, N-(2-((2-((2-Methoxy-6-(pyrrolidin-1-yl)pyridin-4-yl)amino)-5-(trifluoromethyl)pyrimidin-4-yl)amino)phenyl)acrylamide] | < 100 | < 100 | < 100
C=CC(=O)Nc1ccccc1Nc1nc(Nc2cc(OC)nc(N3CCCCC3)c2)ncc1C(F)(F)F [Compound I-282, N-(2-((2-((2-Methoxy-6-(piperidin-1-yl)pyridin-4-yl)amino)-5-(trifluoromethyl)pyrimidin-4-yl)amino)phenyl)acrylamide] | < 100 | < 100 | 101 to 500
C=CC(=O)Nc1ccccc1Nc1nc(Nc2cc(OC)nc(OCCOC)c2)ncc1C(F)(F)F [Compound I-283, N-(2-((2-((2-Methoxy-6-(2-methoxyethoxyl)pyridin-4-yl)amino)-5-(trifluoromethyl)pyrimidin-4-yl)amino)phenyl)acrylamide] | < 100 | < 100 | < 100
C=CC(=O)Nc1cc(OC)ccc1Nc1nc(Nc2cc(OC)ncc2C)ncc1C(F)(F)F [Compound I-284, N-(5-Methoxy-2-((2-((2-methoxy-5-methylpyridin-4-yl)amino)-5-(trifluoromethyl)pyrimidin-4-yl)amino)phenyl)acrylamide] | 501 to 999 | < 100 | < 100
C=CC(=O)Nc1ccccc1Nc1nc(Nc2cc(NCCOC)nc(OC)c2)ncc1C(F)(F)F [Compound I-286, N-(2-((2-((2-Methoxy-6-((2-methoxyethyl)amino)pyridin-4-yl)amino)-5-(trifluoromethyl)pyrimidin-4-yl)amino)phenyl)acrylamide] | < 100 | < 100 | < 100
C=CC(=O)Nc1ccccc1Nc1nc(Nc2cc(OC)nc(N3CCS(=O)(=O)CC3)c2)ncc1C(F)(F)F [Compound I-291, N-(2-((2-((2-(1,1-Dioxidothiomorpholino)-6-methoxypyridin-4-yl)amino)-5-(trifluoromethyl)pyrimidin-4-yl)amino)phenyl)acrylamide] | < 100 | < 100 | < 100
C=CC(=O)Nc1ccccc1Nc1nc(Nc2ccnnc2)ncc1C(F)(F)F [Compound I-293, N-(2-((2-(Pyridazin-4-ylamino)-5-(trifluoromethyl)pyrimidin-4-yl)amino)phenyl)acrylamide] | < 100 | 501 to 999 | 101 to 500
C=CC(=O)Nc1cc(C)ccc1Nc1nc(Nc2cc(OC)nc(N3CCN(C(C)=O)CC3)c2)ncc1Cl [Compound I-296, N-(2-((2-((2-(4-acetylpiperazin-1-yl)-6-methoxypyridin-4-yl)amino)-5-chloropyrimidin-4-yl)amino)-5-methylphenyl)acrylamide] | < 100 | < 100 | < 100
C=CC(=O)Nc1cc(F)ccc1Nc1nc(Nc2cc(OC)ncc2C)ncc1C(F)(F)F [Compound I-322, N-(5-fluoro-2-((2-((2-methoxy-5-methylpyridin-4-yl)amino)-5-(trifluoromethyl)pyrimidin-4-yl)amino)phenyl)acrylamide] | 101 to 500 | < 100 | < 100
C=CC(=O)Nc1cc(C(F)(F)F)ccc1Nc1nc(Nc2cc(OC)ncc2C)ncc1C(F)(F)F [Compound I-323, N-(2-((2-((2-methoxy-5-methylpyridin-4-yl)amino)-5-(trifluoromethyl)pyrimidin-4-yl)amino)-5-(trifluoromethyl)phenyl)acrylamide] | 101 to 500 | < 100 | < 100
C=CC(=O)Nc1cc(C)ccc1Nc1nc(Nc2cc(OC)nc(N3CCN(C)CC3)c2)ncc1C(F)(F)F [Compound I-325, N-(2-((2-((2-methoxy-6-(4-methylpiperazin-1-yl)pyridin-4-yl)amino)-5-(trifluoromethyl)pyrimidin-4-yl)amino)-5-methylphenyl)acrylamide] | < 100 | 101 to 500 | 101 to 500
C=CC(=O)Nc1cc(C)ccc1Nc1nc(Nc2cc(OC)nc(N3CC(O)C3)c2)ncc1C(F)(F)F [Compound I-328, N-(2-((2-((2-(3-hydroxyazetidin-1-yl)-6-methoxypyridin-4-yl)amino)-5-(trifluoromethyl)pyrimidin-4-yl)amino)-5-methylphenyl)acrylamide] | < 100 | < 100 | < 100
C=CS(=O)(=O)Nc1cc(C)ccc1Nc1nc(Nc2cc(OC)ncc2C)ncc1C(F)(F)F [Compound I-333, N-(2-((2-((2-methoxy-5-methylpyridin-4-yl)amino)-5-(trifluoromethyl)pyrimidin-4-yl)amino)-5-methylphenyl)ethenesulfonamide] | > 1000 | 101 to 500 | 101 to 500
C=CC(=O)Nc1cc(OC)ccc1Nc1nc(Nc2cc(OC)nc(N3CCN(C)CC3)c2)ncc1C(F)(F)F [Compound I-334, N-(5-methoxy-2-((2-((2-methoxy-6-(4-methylpiperazin-1-yl)pyridin-4-yl)amino)-5-(trifluoromethyl)pyrimidin-4-yl)amino)phenyl)acrylamide] | < 100 | < 100 | < 100
C=CC(=O)Nc1cc(C)ccc1Nc1nc(Nc2cc(OC)nc(N(C)CCOC)c2)ncc1C(F)(F)F [Compound I-336, N-(2-((2-((2-methoxy-6-((2-methoxyethyl)(methyl)amino)pyridin-4-yl)amino)-5-(trifluoromethyl)pyrimidin-4-yl)amino)-5-methylphenyl)acrylamide] | < 100 | 101 to 500 | < 100
